Reference: PubChem BioAssay AID2060512 (Molecular Pharmacology Branch, DTP, NCI, 2025)
pIC50: −log10 of the molar value.

System: 186277-243-T-J2-PDC complex spheroid viability
Assay: Anticancer human tumor 186277-243-T-J2-PDC patient-derived colon adenocarcinoma cell line growth inhibition [GQUAD]
Settings: for pIC50: curve of first compound; for viability, T/C: stronger effect = lower value
Method in brief: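 Multi-cell-type spheroids of tumor cells with HUVEC and mesenchymal stem cells, treated with drug combinations. Concentrations descend in half-log steps from near clinical Cmax, or from 10 microM where Cmax is unknown; viability read-out.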

[1] = second compound 0.0316 µM, first compound 0.0316 µM
[2] = second compound 0.0316 µM, first compound 0.1 µM
[3] = second compound 0.0316 µM, first compound 0.316 µM
[4] = second compound 0.0316 µM, first compound 1 µM
[5] = second compound 0.0316 µM, first compound 3.16 µM
[6] = second compound 0.0316 µM, first compound 10 µM
[7] = second compound 0.1 µM, first compound 0.0316 µM
[8] = second compound 0.1 µM, first compound 0.1 µM
[9] = second compound 0.1 µM, first compound 0.316 µM
[10] = second compound 0.1 µM, first compound 1 µM
[11] = second compound 0.1 µM, first compound 3.16 µM
[12] = second compound 0.1 µM, first compound 10 µM
[13] = second compound 0.316 µM, first compound 0.0316 µM
[14] = second compound 0.316 µM, first compound 0.1 µM
[15] = second compound 0.316 µM, first compound 0.316 µM
[16] = second compound 0.316 µM, first compound 1 µM
[17] = second compound 0.316 µM, first compound 3.16 µM
[18] = second compound 0.316 µM, first compound 10 µM
[19] = second compound 1 µM, first compound 0.0316 µM
[20] = second compound 1 µM, first compound 0.1 µM
[21] = second compound 1 µM, first compound 0.316 µM
[22] = second compound 1 µM, first compound 1 µM
[23] = second compound 1 µM, first compound 3.16 µM
[24] = second compound 1 µM, first compound 10 µM
[25] = second compound 3.16 µM, first compound 0.0316 µM
[26] = second compound 3.16 µM, first compound 0.1 µM
[27] = second compound 3.16 µM, first compound 0.316 µM
[28] = second compound 3.16 µM, first compound 1 µM
[29] = second compound 3.16 µM, first compound 3.16 µM
[30] = second compound 3.16 µM, first compound 10 µM
[31] = second compound 10 µM, first compound 0.0316 µM
[32] = second compound 10 µM, first compound 0.1 µM
[33] = second compound 10 µM, first compound 0.316 µM
[34] = second compound 10 µM, first compound 1 µM
[35] = second compound 10 µM, first compound 3.16 µM
[36] = second compound 10 µM, first compound 10 µM
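Further: spheroids exposed to drugs for 7 days.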
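Wherever viability, T/C is given: 100% = DMSO vehicle control viability.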

## C=CCn1c(=O)c2cnc(Nc3ccc(N4CCN(C)CC4)cc3)nc2n1-c1cccc(C(C)(C)O)n1 + Cc1[nH]c2ccc(F)cc2c1-c1nc2c3cccnc3c3ncccc3c2[nH]1
Second compound 0.0316 µM
  pIC50: 6.76
Second compound 0.1 µM
  pIC50: 6.74
Second compound 0.316 µM
  pIC50: 6.75
Second compound 1 µM
  pIC50: 6.75
Second compound 3.16 µM
  pIC50: 6.85
Second compound 10 µM
  pIC50: 6.86
[1]
  viability, T/C: 97.9%
[2]
  viability, T/C: 83.8%
[3]
  viability, T/C: 13.2%
[4]
  viability, T/C: 7.62%
[5]
  viability, T/C: 8.21%
[6]
  viability, T/C: 8.87%
[7]
  viability, T/C: 112%
[8]
  viability, T/C: 87.8%
[9]
  viability, T/C: 13.6%
[10]
  viability, T/C: 9.07%
[11]
  viability, T/C: 9.3%
[12]
  viability, T/C: 9.89%
[13]
  viability, T/C: 108%
[14]
  viability, T/C: 88%
[15]
  viability, T/C: 12.7%
[16]
  viability, T/C: 8.61%
[17]
  viability, T/C: 9.09%
[18]
  viability, T/C: 11.5%
[19]
  viability, T/C: 97.1%
[20]
  viability, T/C: 87.4%
[21]
  viability, T/C: 13.7%
[22]
  viability, T/C: 8.91%
[23]
  viability, T/C: 9.37%
[24]
  viability, T/C: 10.9%
[25]
  viability, T/C: 96.4%
[26]
  viability, T/C: 67.2%
[27]
  viability, T/C: 11.1%
[28]
  viability, T/C: 8.17%
[29]
  viability, T/C: 8.58%
[30]
  viability, T/C: 10.8%
[31]
  viability, T/C: 89.9%
[32]
  viability, T/C: 64.6%
[33]
  viability, T/C: 12.9%
[34]
  viability, T/C: 8.07%
[35]
  viability, T/C: 8.03%
[36]
  viability, T/C: 10.3%

## CC(C)(O)C1CCC(Nc2ccc3ncc(-c4cccc(C(F)(F)F)c4)n3n2)CC1 (stereo not drawn) + Cc1[nH]c2ccc(F)cc2c1-c1nc2c3cccnc3c3ncccc3c2[nH]1
Second compound 0.0316 µM
  pIC50: 5.59
Second compound 0.1 µM
  pIC50: 5.42
Second compound 0.316 µM
  pIC50: 5.54
Second compound 1 µM
  pIC50: 5.56
Second compound 3.16 µM
  pIC50: 5.61
Second compound 10 µM
  pIC50: 5.66
[1]
  viability, T/C: 105%
[2]
  viability, T/C: 87.1%
[3]
  viability, T/C: 86.5%
[4]
  viability, T/C: 80.9%
[5]
  viability, T/C: 42.2%
[6]
  viability, T/C: 29.2%
[7]
  viability, T/C: 100%
[8]
  viability, T/C: 103%
[9]
  viability, T/C: 78.8%
[10]
  viability, T/C: 83.3%
[11]
  viability, T/C: 49.8%
[12]
  viability, T/C: 32.1%
[13]
  viability, T/C: 90%
[14]
  viability, T/C: 110%
[15]
  viability, T/C: 97.3%
[16]
  viability, T/C: 91.8%
[17]
  viability, T/C: 46.1%
[18]
  viability, T/C: 32.6%
[19]
  viability, T/C: 98.8%
[20]
  viability, T/C: 97%
[21]
  viability, T/C: 90.5%
[22]
  viability, T/C: 107%
[23]
  viability, T/C: 41.7%
[24]
  viability, T/C: 45%
[25]
  viability, T/C: 95.6%
[26]
  viability, T/C: 115%
[27]
  viability, T/C: 107%
[28]
  viability, T/C: 90.9%
[29]
  viability, T/C: 37.9%
[30]
  viability, T/C: 38.6%
[31]
  viability, T/C: 91%
[32]
  viability, T/C: 111%
[33]
  viability, T/C: 113%
[34]
  viability, T/C: 87.4%
[35]
  viability, T/C: 29.4%
[36]
  viability, T/C: 35.3%

## CCc1c2c(nc3ccc(O)cc13)-c1cc3c(c(=O)n1C2)COC(=O)[C@]3(O)CC + Cc1[nH]c2ccc(F)cc2c1-c1nc2c3cccnc3c3ncccc3c2[nH]1
Second compound 0.0316 µM
  pIC50: 7.89
Second compound 0.1 µM
  pIC50: 7.88
Second compound 0.316 µM
  pIC50: 7.99
Second compound 1 µM
  pIC50: 7.95
Second compound 3.16 µM
  pIC50: 8.13
Second compound 10 µM
  pIC50: 7.80
Second compound 0.0316 µM, first compound 0.000999 µM
  viability, T/C: 99.6%
Second compound 0.0316 µM, first compound 0.00316 µM
  viability, T/C: 71.6%
Second compound 0.0316 µM, first compound 0.00999 µM
  viability, T/C: 62.5%
[1]
  viability, T/C: 29.9%
Second compound 0.0316 µM, first compound 0.0999 µM
  viability, T/C: 25.1%
[3]
  viability, T/C: 21.1%
Second compound 0.1 µM, first compound 0.000999 µM
  viability, T/C: 115%
Second compound 0.1 µM, first compound 0.00316 µM
  viability, T/C: 94.5%
Second compound 0.1 µM, first compound 0.00999 µM
  viability, T/C: 52.4%
[7]
  viability, T/C: 36.5%
Second compound 0.1 µM, first compound 0.0999 µM
  viability, T/C: 21.4%
[9]
  viability, T/C: 22%
Second compound 0.316 µM, first compound 0.000999 µM
  viability, T/C: 105%
Second compound 0.316 µM, first compound 0.00316 µM
  viability, T/C: 70.1%
Second compound 0.316 µM, first compound 0.00999 µM
  viability, T/C: 54.2%
[13]
  viability, T/C: 33.9%
Second compound 0.316 µM, first compound 0.0999 µM
  viability, T/C: 23.7%
[15]
  viability, T/C: 19.8%
Second compound 1 µM, first compound 0.000999 µM
  viability, T/C: 91.5%
Second compound 1 µM, first compound 0.00316 µM
  viability, T/C: 73.2%
Second compound 1 µM, first compound 0.00999 µM
  viability, T/C: 49.9%
[19]
  viability, T/C: 37.4%
Second compound 1 µM, first compound 0.0999 µM
  viability, T/C: 25%
[21]
  viability, T/C: 20.7%
Second compound 3.16 µM, first compound 0.000999 µM
  viability, T/C: 85.9%
Second compound 3.16 µM, first compound 0.00316 µM
  viability, T/C: 63.5%
Second compound 3.16 µM, first compound 0.00999 µM
  viability, T/C: 45.6%
[25]
  viability, T/C: 31%
Second compound 3.16 µM, first compound 0.0999 µM
  viability, T/C: 26.4%
[27]
  viability, T/C: 18.7%
Second compound 10 µM, first compound 0.000999 µM
  viability, T/C: 77.2%
Second compound 10 µM, first compound 0.00316 µM
  viability, T/C: 72.2%
Second compound 10 µM, first compound 0.00999 µM
  viability, T/C: 58.8%
[31]
  viability, T/C: 36.8%
Second compound 10 µM, first compound 0.0999 µM
  viability, T/C: 24.1%
[33]
  viability, T/C: 23.3%

## O=C(c1cc(Cc2n[nH]c(=O)c3ccccc23)ccc1F)N1CCN(C(=O)C2CC2)CC1 + Cc1[nH]c2ccc(F)cc2c1-c1nc2c3cccnc3c3ncccc3c2[nH]1
Second compound 0.0316 µM
  pIC50: < 5.00
Second compound 0.1 µM
  pIC50: < 5.00
Second compound 0.316 µM
  pIC50: < 5.00
Second compound 1 µM
  pIC50: < 5.00
Second compound 3.16 µM
  pIC50: < 5.00
Second compound 10 µM
  pIC50: < 5.00
[1]
  viability, T/C: 110%
[2]
  viability, T/C: 91.6%
[3]
  viability, T/C: 103%
[4]
  viability, T/C: 90.9%
[5]
  viability, T/C: 98.8%
[6]
  viability, T/C: 54.9%
[7]
  viability, T/C: 93.2%
[8]
  viability, T/C: 106%
[9]
  viability, T/C: 97%
[10]
  viability, T/C: 100%
[11]
  viability, T/C: 82.3%
[12]
  viability, T/C: 66.2%
[13]
  viability, T/C: 98.1%
[14]
  viability, T/C: 94.5%
[15]
  viability, T/C: 91.3%
[16]
  viability, T/C: 92.6%
[17]
  viability, T/C: 89.9%
[18]
  viability, T/C: 53.8%
[19]
  viability, T/C: 79.3%
[20]
  viability, T/C: 99.4%
[21]
  viability, T/C: 97.4%
[22]
  viability, T/C: 86%
[23]
  viability, T/C: 89.2%
[24]
  viability, T/C: 62.1%
[25]
  viability, T/C: 99%
[26]
  viability, T/C: 101%
[27]
  viability, T/C: 113%
[28]
  viability, T/C: 105%
[29]
  viability, T/C: 93.1%
[30]
  viability, T/C: 68.3%
[31]
  viability, T/C: 89%
[32]
  viability, T/C: 102%
[33]
  viability, T/C: 114%
[34]
  viability, T/C: 87.6%
[35]
  viability, T/C: 86.5%
[36]
  viability, T/C: 59.2%
